This is an account of results in ChEMBL document CHEMBL4359852, “Design, synthesis and biological evaluation of novel 5-(piperazin-1-yl)quinolin-2(1H)-one derivatives as potential chitin synthase inhibitors and antifungal agents” (Eur J Med Chem, 2019).

Assay [1] relates to Pseudomonas aeruginosa. Briefly: Antibacterial activity against Pseudomonas aeruginosa ATCC 9027 assessed as reduction in bacterial cell growth incubated for overnight by two-fold serial dilution method. Type of assay: functional.
Assay [2] is described as follows: Inhibition of Saccharomyces cerevisiae CGMCC 2.145 chitin synthase using GlcNAc and UDP-GlcNAc as substrate incubated for 60 mins by microplate reader analysis.
In assay [3] the test system is Candida albicans. Description: Antifungal activity against Candida albicans ATCC 76615 assessed as reduction in fungal cell growth incubated for 48 hrs by two-fold serial dilution method. The format is functional. The following applies: ATCC 76615, 48 h.
Assay [4] deals with Cryptococcus neoformans. Briefly: Antifungal activity against Cryptococcus neoformans ATCC 32719 assessed as reduction in fungal cell growth incubated for 48 hrs by two-fold serial dilution method. Type of assay: functional. The following applies: ATCC 32719, 48 h.
Assay [5] relates to Aspergillus flavus. Briefly: Antifungal activity against Aspergillus flavus ATCC 16870 assessed as reduction in fungal cell growth incubated for 48 hrs by two-fold serial dilution method. The format is functional. The settings on record: ATCC 16870, 48 h.
For assay [6], the system named is Staphylococcus aureus. Briefly: Antibacterial activity against Staphylococcus aureus ATCC 25923 assessed as reduction in bacterial cell growth incubated for overnight by two-fold serial dilution method. The format is functional.
Assay [7] has as its system Staphylococcus aureus. Description: Antibacterial activity against methicillin resistant Staphylococcus aureus N 315 assessed as reduction in bacterial cell growth incubated for overnight by two-fold serial dilution method. Type of assay: functional.
Assay [8] concerns Bacillus subtilis. Briefly: Antibacterial activity against Bacillus subtilis ATCC 6633 assessed as reduction in bacterial cell growth incubated for overnight by two-fold serial dilution method. The format is functional.
The subject of assay [9] is Proteus vulgaris. Description: Antibacterial activity against Bacillus proteus ATCC 8427 assessed as reduction in bacterial cell growth incubated for overnight by two-fold serial dilution method. Type of assay: functional.
Assay [10] concerns Escherichia coli. Briefly: Antibacterial activity against Escherichia coli JM109 assessed as reduction in bacterial cell growth incubated for overnight by two-fold serial dilution method. The format is functional.
Assay [11] concerns Saccharomyces cerevisiae. Description: Inhibition of Saccharomyces cerevisiae CGMCC 2.145 chitin synthase using GlcNAc and UDP-GlcNAc as substrate at 300 ug/ml incubated for 60 mins by microplate reader analysis relative to control.

Values after ≈ are worked out from the molar mass of the structure shown.

In the case of `COc1ccc(NC[C@@H](O)CN2CCN(c3cccc4c3CCC(=O)N4)CC2)cc1.Cl`, the MIC amounted to 256 µg/mL in assay [1]; 64 µg/mL in assay [3]; 128 µg/mL in [4]; 256 µg/mL in assay [5]; 128 µg/mL in [6]; 128 µg/mL in assay [7]. In addition, the MIC was found to be 128 µg/mL in assay [8], 128 µg/mL in [9] and 64 µg/mL in assay [10]. Moreover, it took 120 µM to reach half-maximal inhibition in assay [2] (IC50).
As for `Cc1ccc(NCC(O)CN2CCN(c3cccc4c3CCC(=O)N4)CC2)cc1.Cl` (racemic), the MIC in assay [1] was 128 µg/mL; in assay [3], 128 µg/mL; in assay [4], greater than 512 µg/mL; in assay [5] it was 128 µg/mL; in assay [6] it was 64 µg/mL; in assay [7], 64 µg/mL. For the same molecule, the MIC in assay [8] was determined as 128 µg/mL; in assay [9] it was 64 µg/mL; in assay [10], 128 µg/mL. This molecule also came in with an inhibition in assay [11] of 17.6%.
As for `Cl.O=C1CCc2c(cccc2N2CCN(CC(O)CNCc3ccc(Cl)cc3)CC2)N1` (racemic), the MIC came out at 256 µg/mL in [1]; 128 µg/mL in [3]; 256 µg/mL in [4]; 256 µg/mL in [5]; 256 µg/mL in assay [6]; 256 µg/mL in [7]. Further, the results for the MIC in assay [8], in assay [9] and in assay [10] were 256 µg/mL, 128 µg/mL and 256 µg/mL, respectively. For the same molecule, in assay [11], the inhibition amounted to 42.5%.
Take `Cc1ccccc1NCC(O)CN1CCN(c2cccc3c2CCC(=O)N3)CC1.Cl` (racemic): the MIC in assay [1] came to 128 µg/mL; in assay [3] it was 128 µg/mL; in assay [4] it was 256 µg/mL; in assay [5], 256 µg/mL; in [6], 128 µg/mL; in [7], 128 µg/mL. Besides, the results for the MIC in assay [8], in [9] and in [10] were 128 µg/mL, 128 µg/mL and 256 µg/mL, respectively. The same molecule yielded an inhibition in assay [11] of 28.4%.
Consider `Cl.O=C1CCc2c(cccc2N2CCN(CC(O)Cn3cnnc3)CC2)N1` (racemic), for which the MIC came out at 128 µg/mL in assay [1]; 64 µg/mL in [3]; 128 µg/mL in [4]; 256 µg/mL in [5]; 128 µg/mL in assay [6]; 256 µg/mL in assay [7]. The values for the MIC in assay [8], in assay [9] and in [10] were 128 µg/mL, 64 µg/mL and 64 µg/mL, respectively. This molecule registered an inhibition in [11] of 30.8%.
Take `Cl.O=C1CCc2c(cccc2N2CCN(CC(O)CN3CCCCCC3)CC2)N1` (racemic): the MIC in [1] was 256 µg/mL; in assay [3] it was 128 µg/mL; in assay [4], 256 µg/mL; in [5], 256 µg/mL; in [6], 256 µg/mL; in assay [7], 512 µg/mL. Also, the MIC in [8], in [9] and in assay [10] was 256 µg/mL throughout. The same molecule had an inhibition in [11] of 45.4%.
`COc1ccccc1NCC(O)CN1CCN(c2cccc3c2CCC(=O)N3)CC1.Cl` (racemic): the MIC in [1] was 128 µg/mL; in assay [3], 128 µg/mL; in assay [4] it was 512 µg/mL; in assay [5], 256 µg/mL; in assay [6] it was 256 µg/mL; in assay [7], 128 µg/mL. The MIC in assay [8] was determined as 256 µg/mL; in assay [9], 256 µg/mL; in [10], 258 µg/mL. This molecule also registered an inhibition in assay [11] of 45.4%.
As to `Cl.O=C1CCc2c(cccc2N2CCN(CC(O)CNCc3ccccc3)CC2)N1` (racemic), the MIC in assay [1] is 256 µg/mL; in [3], 128 µg/mL; in assay [4], greater than 512 µg/mL; in [5] it was greater than 512 µg/mL; in [6], 256 µg/mL; in [7], 128 µg/mL. Besides, the MIC in assay [8], in assay [9] and in assay [10] was 256 µg/mL in each case. In assay [11], the inhibition was determined as 18.1%.
In the case of `Cc1cccc(C)c1NCC(O)CN1CCN(c2cccc3c2CCC(=O)N3)CC1.Cl` (racemic), the MIC in assay [1] was 128 µg/mL; in assay [3], 128 µg/mL; in [4], 256 µg/mL; in assay [5] it was 256 µg/mL; in assay [6], 128 µg/mL; in [7] it was 256 µg/mL. The MIC in assay [8], in assay [9] and in assay [10] was 128 µg/mL in each case. The molecule further yielded an inhibition in [11] of 40.7%.
On to `Cl.O=C1CCc2c(cccc2N2CCN(CC(O)CN(CCO)CCO)CC2)N1` (racemic), for which the MIC in assay [1] stood at 256 µg/mL; in assay [3], 128 µg/mL; in [4] it was 256 µg/mL; in assay [5], 256 µg/mL; in assay [6], 256 µg/mL; in assay [7], 512 µg/mL. The MIC in assay [8], in [9] and in assay [10] was 256 µg/mL throughout. The molecule further registered an inhibition in assay [11] of 34.5%.
On to `CCN(CC)CC(O)CN1CCN(c2cccc3c2CCC(=O)N3)CC1.Cl` (racemic), for which the MIC in assay [1] is 128 µg/mL; in assay [3] it was 128 µg/mL; in assay [4] it was 256 µg/mL; in assay [5] it was 512 µg/mL; in [6] it was 256 µg/mL; in assay [7], 256 µg/mL. The MIC in assay [8], in assay [9] and in assay [10] was 512 µg/mL throughout. Besides, the inhibition in assay [11] was found to be 39.4%.
Turning to `CC(C)(C)NCC(O)CN1CCN(c2cccc3c2CCC(=O)N3)CC1.Cl` (racemic), the minimal inhibitory concentration (MIC) was found to be 128 µg/mL in assay [1]; 128 µg/mL in [3]; 256 µg/mL in [4]; 256 µg/mL in [5]; 256 µg/mL in assay [6]; 256 µg/mL in assay [7]. Besides, the MIC in [8] amounted to 512 µg/mL; in assay [9] it was 256 µg/mL; in assay [10], 256 µg/mL. This molecule returned an inhibition in assay [11] of 48.3%.
`Cl.O=C1CCc2c(cccc2N2CCN(CC(O)CN3CCCCC3)CC2)N1` (racemic): the MIC was determined as 256 µg/mL in [1]; 64 µg/mL in assay [3]; 256 µg/mL in assay [4]; 256 µg/mL in assay [5]; 256 µg/mL in [6]; 512 µg/mL in assay [7]. In addition, the results for the MIC in [8], in assay [9] and in [10] were 256 µg/mL, 256 µg/mL and 128 µg/mL, respectively. The inhibition in [11] is 32.4%.
For `Cl.O=C1CCc2c(cccc2N2CCN(CC(O)CN3CCCC3)CC2)N1` (racemic), the MIC in assay [1] stood at 512 µg/mL; in assay [3], 128 µg/mL; in [4], 256 µg/mL; in [5] it was 256 µg/mL; in [6], 256 µg/mL; in [7], 256 µg/mL. The MIC in assay [8] turned out to be 256 µg/mL; in assay [9] it was 256 µg/mL; in [10], 128 µg/mL. This molecule also showed an inhibition in assay [11] of 49.9%.
Consider `Cl.O=C1CCc2c(cccc2N2CCN(CC(O)CN3CCOCC3)CC2)N1` (racemic), for which the MIC in [1] is 128 µg/mL; in assay [3], 64 µg/mL; in assay [4], 256 µg/mL; in [5] it was 256 µg/mL; in assay [6] it was 256 µg/mL; in assay [7], 128 µg/mL. In addition, the MIC in [8], in assay [9] and in [10] was 128 µg/mL in each case. The molecule also had an inhibition in [11] of 44.7%.
With `Cl.O=C1CCc2c(cccc2N2CCN(CC(O)CN3CCNCC3)CC2)N1` (racemic), the MIC in assay [1] amounted to 128 µg/mL; in [3] it was 128 µg/mL; in assay [4] it was 256 µg/mL; in assay [5] it was 256 µg/mL; in assay [6], 256 µg/mL; in assay [7], 256 µg/mL. For the same molecule, the values for the MIC in [8], in [9] and in assay [10] were 128 µg/mL, 256 µg/mL and 256 µg/mL, respectively. Besides, in assay [11], the inhibition turned out to be 38.6%.
With `Cl.O=C1CCc2c(cccc2N2CCN(CC(O)CNc3cccc4ccccc34)CC2)N1` (racemic), the MIC in assay [1] turned out to be 128 µg/mL; in assay [3], 128 µg/mL; in assay [4], 256 µg/mL; in assay [5], 512 µg/mL; in assay [6], 128 µg/mL; in assay [7] it was 128 µg/mL. Also, the MIC was 256 µg/mL in assay [8], 128 µg/mL in assay [9] and 128 µg/mL in assay [10]. For the same molecule, the inhibition in assay [11] worked out at 47.5%.
As to `OC(Cn1cncn1)(Cn1cncn1)c1ccc(F)cc1F` [FLUCONAZOLE], the MIC amounted to 16 µg/mL (≈ 52.2 µM) in assay [3], 4 µg/mL (≈ 13.1 µM) in [4] and 64 µg/mL (≈ 209 µM) in assay [5].
Turning to `CCn1cc(C(=O)O)c(=O)c2cc(F)c(N3CCNCC3)cc21` [NORFLOXACIN], the MIC in [1] is 0.5 µg/mL (≈ 1.57 µM); in [6], 2 µg/mL (≈ 6.26 µM); in assay [7], 2 µg/mL (≈ 6.26 µM); in [8], 1 µg/mL (≈ 3.13 µM); in assay [9], 2 µg/mL (≈ 6.26 µM); in assay [10], 1 µg/mL (≈ 3.13 µM).
`CN[C@@H]1[C@H](O[C@H]2[C@H](O[C@H]3[C@H](O)[C@@H](O)[C@H](N=C(N)N)[C@@H](O)[C@@H]3N=C(N)N)O[C@@H](C)[C@]2(O)C=O)O[C@@H](CO)[C@H](O)[C@H]1O.CN[C@@H]1[C@H](O[C@H]2[C@H](O[C@H]3[C@H](O)[C@@H](O)[C@H](N=C(N)N)[C@@H](O)[C@@H]3N=C(N)N)O[C@@H](C)[C@]2(O)C=O)O[C@@H](CO)[C@H](O)[C@H]1O.O=S(=O)(O)O.O=S(=O)(O)O.O=S(=O)(O)O` [STREPTOMYCIN SULFATE]: the MIC in assay [1] was found to be 16 µg/mL; in assay [6] it was 8 µg/mL; in assay [7], 32 µg/mL; in assay [8], 8 µg/mL; in assay [9], 16 µg/mL; in [10] it was 4 µg/mL.
